Laboratory results as given in patent US20100316575A1, “MODULATING BODY WEIGHT” (priority 2008, published 2010).

Biological target: T1, KATP channels (Mus musculus, UniProt P70170+Q61743)
T1 construct: Pacing perfused hearts isolated from WT and Kir6.2-KO mice; from tissue; host or cells: isolated, retrogradely perfused and paced hearts of wild-type mice
Test: Rate-dependent action potential duration (APD90) in paced, perfused isolated hearts
Parameters: species or system mice
Conditions: isolated perfused paced WT mouse hearts, KATP-channel blockade with glyburide, FIG. 5B
Description: FIG. 5. […] The KATP channel-dependent component in rate-dependent action potential shortening was verified in WT hearts following KATP-channel blockade with the sulfonylurea blocker glyburide (FIG. 5B). […] Maximal oxygen consumption (V O2max), corresponding to the highest tolerated workload, reflects the maximal rate of energy production and the ability of the cardiovascular system to supply oxygen. Kir6.2-KO and WT mice achieved the same level of V O2max reflecting their equivalent oxidative phosphorylation potential. […] This was associated with high lactate levels in the blood (FIG. 5E), indicating compromise of the cardiovascular system. Activity-related energy expenditure largely reflects the performance of cardiac and skeletal muscle, tissues with abundant KATP channel expression. Accordingly, cardiac muscle was used as a model of striated musculature. As cardiac function and associated energy consumption depends on electrical determinants, the contribution of KATP channels in heart rate-dependent modulation of action potential duration and rate of oxygen consumption were tested. Telemetry recording of cardiac activity defined that both WT and Kir6.2-KO mice display a heart rate profile with a 400 to 800 beats per minute range (FIG. 5A). […]

T1 sequence (Q61743 whole entry, the tested form may be a part): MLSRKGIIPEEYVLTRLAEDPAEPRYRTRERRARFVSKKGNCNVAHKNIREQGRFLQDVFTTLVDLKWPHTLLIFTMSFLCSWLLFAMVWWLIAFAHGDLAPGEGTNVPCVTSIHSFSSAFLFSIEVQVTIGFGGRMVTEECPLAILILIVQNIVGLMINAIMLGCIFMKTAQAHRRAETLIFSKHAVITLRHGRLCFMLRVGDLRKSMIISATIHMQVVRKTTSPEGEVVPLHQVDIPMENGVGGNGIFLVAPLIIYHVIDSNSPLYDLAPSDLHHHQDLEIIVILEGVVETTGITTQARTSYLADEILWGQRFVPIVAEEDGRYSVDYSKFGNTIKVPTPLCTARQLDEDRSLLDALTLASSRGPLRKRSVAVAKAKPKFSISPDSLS
T1 sequence (P70170 whole entry, the tested form may be a part): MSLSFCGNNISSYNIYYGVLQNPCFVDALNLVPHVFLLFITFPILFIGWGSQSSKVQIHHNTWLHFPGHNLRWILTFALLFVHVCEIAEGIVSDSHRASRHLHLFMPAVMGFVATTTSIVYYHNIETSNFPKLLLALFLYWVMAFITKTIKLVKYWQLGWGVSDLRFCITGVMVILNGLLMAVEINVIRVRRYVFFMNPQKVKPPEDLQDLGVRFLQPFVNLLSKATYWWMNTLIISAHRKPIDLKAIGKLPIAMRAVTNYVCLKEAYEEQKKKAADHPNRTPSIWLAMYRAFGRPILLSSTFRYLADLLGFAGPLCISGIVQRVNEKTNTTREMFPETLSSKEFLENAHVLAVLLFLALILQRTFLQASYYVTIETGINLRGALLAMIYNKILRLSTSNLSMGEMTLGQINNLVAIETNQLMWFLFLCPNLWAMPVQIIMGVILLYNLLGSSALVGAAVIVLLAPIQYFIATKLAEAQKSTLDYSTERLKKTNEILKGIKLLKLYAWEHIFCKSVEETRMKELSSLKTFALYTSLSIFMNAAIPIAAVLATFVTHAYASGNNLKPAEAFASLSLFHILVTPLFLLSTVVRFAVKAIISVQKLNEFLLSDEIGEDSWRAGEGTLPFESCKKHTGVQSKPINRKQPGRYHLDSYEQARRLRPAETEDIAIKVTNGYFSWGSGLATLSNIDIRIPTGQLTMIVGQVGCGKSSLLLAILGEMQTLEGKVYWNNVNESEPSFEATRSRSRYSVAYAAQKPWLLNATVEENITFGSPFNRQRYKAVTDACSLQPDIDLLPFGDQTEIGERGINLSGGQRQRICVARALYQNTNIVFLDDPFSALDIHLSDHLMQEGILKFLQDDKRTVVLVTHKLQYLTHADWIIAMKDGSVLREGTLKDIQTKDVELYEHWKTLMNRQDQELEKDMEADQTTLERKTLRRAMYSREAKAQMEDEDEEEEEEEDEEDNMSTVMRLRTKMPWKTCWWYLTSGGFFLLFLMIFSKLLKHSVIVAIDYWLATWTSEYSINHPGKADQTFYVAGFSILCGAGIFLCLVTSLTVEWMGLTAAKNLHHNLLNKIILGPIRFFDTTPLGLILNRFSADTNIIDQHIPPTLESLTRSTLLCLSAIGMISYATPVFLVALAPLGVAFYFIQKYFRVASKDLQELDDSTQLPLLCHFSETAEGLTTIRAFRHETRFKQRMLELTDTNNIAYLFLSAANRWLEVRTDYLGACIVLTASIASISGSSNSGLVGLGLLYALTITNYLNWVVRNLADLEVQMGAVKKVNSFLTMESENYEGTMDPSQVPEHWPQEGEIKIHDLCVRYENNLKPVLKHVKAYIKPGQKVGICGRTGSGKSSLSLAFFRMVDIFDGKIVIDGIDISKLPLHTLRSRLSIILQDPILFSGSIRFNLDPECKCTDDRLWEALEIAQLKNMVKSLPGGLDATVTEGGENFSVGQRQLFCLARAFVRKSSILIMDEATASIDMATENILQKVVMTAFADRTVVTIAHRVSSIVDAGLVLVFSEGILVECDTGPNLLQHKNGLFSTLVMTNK

- KATP channel-dependent component in rate-dependent action potential shortening (monophasic APD90): verified
Compound: COc1ccc(Cl)cc1C(=O)NCCc1ccc(S(=O)(=O)NC(=O)NC2CCCCC2)cc1 [glyburide]
